The text below walks through data of PubChem BioAssay (NCI).

What all share (assay): NCI-60 cell line screen, 48 h
The test system of test [1] is ACHN renal.
Test [2] has as its system KM20L2 colon.
For test [3], the system named is 786-0 renal.
For test [4], the system named is M19-MEL melanoma.
For test [5], the system named is IGROV1 ovarian.
In test [6] the test system is SNB-19 CNS.
Test [7] concerns SR leukemia.
Test [8] concerns BT-549 breast.
Test [9] relates to NCI/ADR-RES ovarian.
Test [10] has as its system DU-145 prostate.

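Cultured in 96-well plates, cells were exposed to test compound for 48 hours across five concentrations. The concentration for 50% growth inhibition is given as GI50. The concentration for full growth arrest is given as TGI.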

With `Cc1cc(Cl)ccc1NC(=O)CCCC(=O)C(C(=O)c1ccccc1)c1ccccc1` (stereo unspecified), the TGI in [1], in [2], in test [3], in test [4] and in test [5] was over 100 µM each time.

Take `O=C(O)c1oc2cccc3c2c1CCC3`: the TGI in test [1], in test [3], in test [6], in [4], in [5] and in test [7] was over 100 µM in each case.

Regarding `[N-]=[N+]=Nc1c(Br)c(=O)[nH]c(=O)n1COCCO`, the TGI in test [1], in test [3], in test [6], in [4], in test [5] and in test [7] was over 100 µM in each case.

Turning to `CNC(C)Cc1ccc(O)cc1` (stereo unspecified), the TGI in [1], in test [2], in test [3], in test [6], in test [5] and in test [7] was over 100 µM throughout.

As to `c1ccc(COc2cccc3cccnc23)cc1`, the TGI in test [1], in test [2], in test [3], in [6], in test [4] and in test [5] was over 100 µM in each case.

As to `CC1=NN(C(=O)c2cc(Cl)cc([N+](=O)[O-])c2)C(=O)C1N=Nc1ccccc1C(=O)O` (stereo unspecified), the TGI in [1], in test [3], in test [6], in test [4], in test [5] and in [7] was over 100 µM throughout.

With `CCOC(=O)/C(C#N)=C(N)/C(=N\Nc1cccc(C(F)(F)F)c1)C(=O)OCC`, the TGI in test [1], in test [2], in [3], in [6], in [4] and in [5] was over 100 µM in each case. In [7], this compound came in with a TGI of over 100 µM.

`COC(=O)C12C3C4C1C1C2C3C41C(=O)N(C(C)C)C(C)C` (stereo unspecified): the TGI in [1], in [2], in test [3], in [6], in test [4] and in test [5] was over 100 µM in each case. Further, the TGI in test [7] was over 100 µM.

Take `Cc1cccc(O)c(=O)c1`: the TGI in test [1], in test [2], in [3], in test [6], in [4] and in [5] was over 100 µM in each case. This compound also came in with a TGI in test [7] of 80.6 µM.

As for `CCCCCCCCCCCCCCC(O)C1CCC(C(O)CCC(O)CCCCCC(O)CC2=CC(C)OC2=O)O1` (stereo unspecified), the TGI in [2] came out at 18.3 µM; in test [3], 8.87 µM; in test [6], 11.1 µM; in [4], 11.2 µM; in [5], 18.6 µM.

With `C[C@@H](c1ccccc1)N(CC#N)C1CCC[C@H]1O` (stereo partly specified), the TGI in [1], in test [2], in [3], in test [6], in [4] and in test [5] was over 100 µM throughout.

For the compound `CC(=O)Nc1cc2cc(NS(=O)(=O)c3cc(C(F)(F)F)cc(C(F)(F)F)c3)ccc2oc1=O`, the TGI in test [1], in test [3], in [8], in test [6], in [9] and in test [5] was over 100 µM throughout. Also, the TGI in test [7] and in test [10] was over 100 µM throughout.

Take `Cc1[nH]n(-c2ccccc2)c(=O)c1C(=O)c1ccccc1`: the GI50 is over 25 µM in [1]; over 25 µM in [3]; over 25 µM in [8]; over 15.7 µM in test [6]; over 23.8 µM in test [9]; over 15.4 µM in [5]. Besides, the GI50 in [7] was over 21 µM; in [10], over 25 µM. In addition, the TGI in [1], in [3], in [8], in [6], in [9] and in test [5] was over 25 µM throughout. Moreover, the TGI in test [7] and in test [10] was over 25 µM in each case.

Consider `S=c1[nH]nc(SCc2ccccc2Cl)c2[nH]cnc12`, for which the TGI in test [1], in [3], in test [8], in [6], in [9] and in test [5] was over 100 µM each time. Also, the TGI in test [7] and in test [10] was over 100 µM each time.

With `O=C(O)c1ccc2cccnc2c1O`, the GI50 in test [1] is 1.7 µM; in [3], 2.4 µM; in [8], 0.561 µM; in [6] it was 1.48 µM; in test [9], 1.33 µM; in [5], 1.38 µM. Also, the GI50 in test [7] was 2.23 µM; in test [10] it was 0.828 µM. The TGI is 11.3 µM in test [1]; 24.8 µM in [3]; over 20 µM in test [8]; over 100 µM in test [6]; 36.2 µM in test [9]; 25.8 µM in test [5]. Moreover, the TGI was over 100 µM in [7] and 42.3 µM in test [10].

Take `COc1cc(/C=C/c2cc(/C=C/c3ccc(O)c(OC)c3)[nH]c(=O)n2)ccc1O`: the GI50 in test [1] is 8.84 µM; in test [3], 2.73 µM; in [8] it was 2.06 µM; in test [6] it was 3.38 µM; in [9] it was 16.7 µM; in test [5], 4.41 µM. For the same compound, the GI50 in test [7] is 1.91 µM; in test [10] it was 4.91 µM. The TGI was over 100 µM in test [1]; 33 µM in test [3]; 8.08 µM in test [8]; over 100 µM in [6]; over 100 µM in test [9]; over 100 µM in [5]. Also, the TGI in [7] was 6.18 µM; in [10] it was 35.4 µM.
